Measured values published in paper PMC9105517, “Biological Activities of Lichen-Derived Monoaromatic Compounds” (Molecules, 2022).
In brackets after ≈: the same amount, converted by molar mass. Like-named read-outs stand apart in the source and are kept apart here.

Columns and labels:
[1] = system: Acinetobacter baumannii; test: Agar well diffusion antimicrobial assay; type: cell-based; details: 8 mm wells
Method: (§1) The agar well diffusion method was utilized to investigate the antibacterial activity of the isolated compounds on antibiotic-resistant, pathogenic bacteria E. faecium, S. aureus, and A. baumannii. Three bacterial pathogens were cultured in nutrient broth at 37 °C for 18 h. The cultures were diluted with sterile 0.9% NaCl to obtain bacterial solutions of 1.5 × 10^8 CFU/mL. This solution with a volume of 100 μL was spread on a Mueller-Hinton agar plate. Holes with a diameter of 8 mm were punched aseptically to create wells on the surface of the Mueller–Hinton agar. The compounds were dissolved in DMSO. The amount of 50 µg of each compound solution was inserted into the wells. The plates were incubated at 37 °C for 16–18 h and the antibacterial activity of each compound was recorded by measuring the diameters of the inhibition zones surrounding the wells. The determination of the minimum inhibitory concentration of 9a against Staphylococcus aureus was performed by the agar dilution method. Compound 9a was dissolved in DMSO to the final concentration of 1 mg/mL and then diluted with Mueller–Hinton agar (MHA) to the concentration range of 0, 1, 2, 4, 8, 16, 32, 64 μg/mL as the final concentrations in MHA plates. S. aureus was cultured in nutrient broth at 37 °C overnight with shaking. […] 1 μL of the diluted bacterial solution (10^4 CFU) was placed on the surface of the MHA plates and the plates were incubated at 37 °C for 16–18 h. The MIC value was recorded as the lowest concentration of 9a that inhibited the growth of S. aureus. Kanamycin was chosen as the positive control in this experiment, while DMSO was regarded as a control.

[2] = system: Staphylococcus aureus; test: Agar well diffusion antimicrobial assay; type: cell-based; details: 8 mm wells
Method: as §1

[3] = system: Enterococcus faecium; test: Agar well diffusion antimicrobial assay; type: cell-based; details: 8 mm wells
Method: as §1

[4] = molecular target: T1, Saccharomyces cerevisiae α-glucosidase (E.C 3.2.1.20) (Saccharomyces cerevisiae, UniProt P53341); test: biochemical
T1 construct: purchased Sigma Aldrich Co (Saint Louis, MO, USA)
Method: The alpha-glucosidase (0.2 U/mL) and substrate (5.0 mM pNPG) were dissolved in 100 mM pH 6.9 sodium phosphate buffer. The inhibitor (50 µL) was preincubated with alpha-glucosidase at 37 °C for 20 min, and the substrate (40 µL) was subsequently added to the reaction mixture. The enzymatic reaction was conducted at 37 °C for 20 min and ended by adding 0.2 M Na2CO3 (130 μL). Enzymatic activity was quantitatively measured at an absorbance of 405 nm (CLARIOstar plus, BMG LABTECH, Ortenberg, Germany). All samples were analyzed in triplicate at five different concentrations around the IC50 values, and the mean values were retained. The following equation was used to calculate the inhibition percentage (%): Inhibition (%) = [1 − (Asample/Acontrol)] × 100.

[5] = system: alpha-glucosidase; parameters: method as in doi:10.1007/s10600-021-03404-z, PMID 33656403, PMID 29968482, PMID 18981604; details: cited from earlier work
[6] = system: various microorganisms; parameters: method as in doi:10.1007/s11101-010-9201-1, PMID 12487331; details: cited from earlier work
[7] = system: S. aureus, Bacillus subtilis, Pseudomonas aeruginosa, Candida albicans, Escherichia coli, and Aspergillus niger; parameters: method as in PMID 3834834; details: various microorganisms; cited from earlier work
[8] = system: Staphylococcus aureus; test: Minimum inhibitory concentration by agar dilution method; type: cell-based; details: 37 °C, 16–18 h
Method: The agar well diffusion method was utilized to investigate the antibacterial activity of the isolated compounds on antibiotic-resistant, pathogenic bacteria E. faecium, S. aureus, and A. baumannii. Three bacterial pathogens were cultured in nutrient broth at 37 °C for 18 h. The cultures were diluted with sterile 0.9% NaCl to obtain bacterial solutions of 1.5 × 10^8 CFU/mL. This solution with a volume of 100 μL was spread on a Mueller-Hinton agar plate. Holes with a diameter of 8 mm were punched aseptically to create wells on the surface of the Mueller–Hinton agar. The compounds were dissolved in DMSO. The amount of 50 µg of each compound solution was inserted into the wells. The plates were incubated at 37 °C for 16–18 h and the antibacterial activity of each compound was recorded by measuring the diameters of the inhibition zones surrounding the wells. The determination of the minimum inhibitory concentration of 9a against Staphylococcus aureus was performed by the agar dilution method. Compound 9a was dissolved in DMSO to the final concentration of 1 mg/mL and then diluted with Mueller–Hinton agar (MHA) to the concentration range of 0, 1, 2, 4, 8, 16, 32, 64 μg/mL as the final concentrations in MHA plates. S. aureus was cultured in nutrient broth at 37 °C overnight with shaking. […] The MIC value was recorded as the lowest concentration of 9a that inhibited the growth of S. aureus. […]

[9] = in vitro, 37 °C, pH 6.9, triplicate, read-out: IC50, alpha-glucosidase inhibitory activity (converted)

T1 sequence (P53341 whole entry): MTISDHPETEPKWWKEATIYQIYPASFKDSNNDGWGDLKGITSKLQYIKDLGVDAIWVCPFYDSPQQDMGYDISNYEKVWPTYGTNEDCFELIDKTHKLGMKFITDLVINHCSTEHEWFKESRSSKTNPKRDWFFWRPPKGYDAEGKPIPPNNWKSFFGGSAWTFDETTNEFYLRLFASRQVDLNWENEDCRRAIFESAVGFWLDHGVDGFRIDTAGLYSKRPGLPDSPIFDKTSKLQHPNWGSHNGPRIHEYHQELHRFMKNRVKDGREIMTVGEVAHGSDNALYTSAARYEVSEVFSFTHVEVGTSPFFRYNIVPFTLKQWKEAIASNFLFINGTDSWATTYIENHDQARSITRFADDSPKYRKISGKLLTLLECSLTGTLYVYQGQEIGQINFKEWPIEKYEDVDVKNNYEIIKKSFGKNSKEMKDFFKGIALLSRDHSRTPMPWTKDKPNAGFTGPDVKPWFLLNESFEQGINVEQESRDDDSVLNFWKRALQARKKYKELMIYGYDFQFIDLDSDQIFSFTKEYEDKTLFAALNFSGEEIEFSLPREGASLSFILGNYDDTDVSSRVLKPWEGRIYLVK

CN[C@@H]1[C@@H](O[C@H]2O[C@H](CO)[C@@H](N)[C@H](O)[C@H]2O)OC2C[C@@H](N)[C@@H](O[C@H]3[C@H](O)[C@@H](O)[C@H](N)C[C@@H]3N)OC2[C@@H]1O (some centres unmarked) [Apramycin, reference compound]
zone of inhibition at 50 µg/mL [1]: 20 mm | zone of inhibition at 50 µg/mL [2]: 21 mm | zone of inhibition at 50 µg/mL [3]: 21 mm

O=C(O)c1cc(O)cc(O)c1 [Compound 1, 3,5-dihydroxybenzoic acid]
IC50 [4, 9]: 729 µM

COC(=O)c1cc(O)cc(O)c1 [Compound 2, 3,5-dihydroxybenzoate methyl]
IC50 [4, 9]: 939 µM

Cc1c(O)cc(C(=O)O)cc1O [Compound 3, 3,5-dihydroxy-4-methylbenzoic acid]
IC50 [4]: 143 µM

COc1c(O)cc(C(=O)O)cc1O [Compound 4, 3,5-dihydroxy-4-methoxylbenzoic acid]
IC50 [4, 9]: 929 µM

Cc1cc(O)c(O)c(O)c1 [Compound 5, 3-hydroxyorcinol]
IC50 [4, 9]: 694 µM

Cc1cc(O)c(C=O)c(O)c1 [Compound 6, atranol]
IC50 [4]: > 1970 µM

COC(=O)c1c(C)cc(O)c(C=O)c1O [Compound 7, methyl hematommate]
alpha-glucosidase inhibition (in words) [5]: potent activity | IC50 [4, 9]: 294 µM

COC(=O)c1c(C)cc(O)c(C)c1O [Compound 8, methyl β-orsellinate]
alpha-glucosidase inhibition (in words) [5]: weak inhibitors | MIC [6]: 30 to 500 µg/mL | IC50 [4]: > 1530 µM | zone of inhibition at 50 µg/mL [1]: 16 mm | zone of inhibition at 50 µg/mL [2]: 18 mm | zone of inhibition at 50 µg/mL [3]: 13 mm | MIC [7]: 80 to 160 µg/mL

COC(=O)c1c(C)c(Br)c(O)c(C)c1O [Compound 8a, methyl 5-bromo-β-orsellinate]
IC50 [4]: 606 µM | zone of inhibition at 50 µg/mL [2]: 12 mm

COC(=O)c1c(C)cc(O)cc1O [Compound 9, methyl orsellinate]
alpha-glucosidase inhibition (in words) [5]: weak inhibitors | MIC [6]: 30 to 500 µg/mL | IC50 [4]: > 1650 µM | zone of inhibition at 50 µg/mL [2]: 13 mm

COC(=O)c1c(C)c(Br)c(O)c(Br)c1O [Compound 9a, methyl 3,5-dibromo-orsellinate]
MIC ([8]; read-out: MIC): 4 µg/mL (≈ 11.8 µM) | IC50 [4]: 459 µM | zone of inhibition at 50 µg/mL [2]: 29 mm

Cc1cc(O)cc(O)c1C(=O)OCC(O)C(O)CO [Compound 10, D-montagnetol]
IC50 [4]: > 1100 µM

Cc1cc(O)c(Br)c(O)c1C(=O)OCC(O)C(O)CO [Compound 10a, 3-bromo-D-montagnetol]
IC50 [4]: 381 µM | zone of inhibition at 50 µg/mL [3]: 13 mm

Cc1c(Br)c(O)c(Br)c(O)c1C(=O)OCC(O)C(O)CO [Compound 10b, 3,5-dibromo-D-montagnetol]
IC50 [4]: 301 µM

CCOC(=O)c1c(C)cc(O)cc1O [ethyl orsellinate]
MIC [6]: 30 to 500 µg/mL

NC[C@H]1O[C@H](O[C@H]2[C@H](O)[C@@H](O[C@H]3O[C@H](CO)[C@@H](O)[C@H](N)[C@H]3O)[C@H](N)C[C@@H]2N)[C@H](O)[C@@H](O)[C@@H]1O [kanamycin, reference compound]
MIC [8]: 4 µg/mL (≈ 8.26 µM)

Cc1cc(O)cc(O)c1 [orcinol]
MIC [6]: 30 to 500 µg/mL

cristiferide A
alpha-glucosidase inhibition (in words) [5]: potent activity
